According to ChEMBL document CHEMBL1201862, “PubChem BioAssay data set” (2004):
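Where inhibition never reached the appropriate level, the endpoint shown equals the highest concentration tested. Otherwise, values were interpolated linearly from a five-concentration, 48-hour dose response in 96-well plates. GI50 marks 50% less growth.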 Activity calls are given as the source filed them. Rule as the data show it: active = GI50 up to about 1.1 µM and inactive = higher.

Legend:
Assay in all cases: NCI-60 cell line screen, 48 h
[1] = test system: SW-620
[2] = test system: SN12C
[3] = test system: MOLT-4
[4] = test system: HOP-62
[5] = test system: NCI-H226
[6] = test system: MCF7
[7] = test system: T47D
[8] = test system: A498
[9] = test system: OVCAR-5
[10] = test system: ACHN
[11] = test system: UO-31
[12] = test system: TK-10
[13] = test system: CAKI-1
[14] = test system: A549
[15] = test system: OVCAR-3
[16] = test system: BT-549
[17] = test system: SK-MEL-28
[18] = test system: DLD-1
[19] = test system: IGROV-1
[20] = test system: HCC 2998

Structure (SMILES) | GI50 [1] | GI50 [2] | GI50 [3] | GI50 [4] | GI50 [5] | GI50 [6] | GI50 [7] | GI50 [8] | GI50 [9] | GI50 [10] | GI50 [11] | GI50 [12] | GI50 [13] | GI50 [14] | GI50 [15] | GI50 [16] | GI50 [17] | GI50 [18] | GI50 [19] | GI50 [20]
Cc1[nH]c(=O)nc(N/N=C/c2ccc(Cl)cc2)c1C(=O)Nc1ccc(Cl)cc1 | 16.6 µM (inactive) | 35.6 µM (inactive) | 45.5 µM (inactive) | 10.6 µM (inactive) | > 100 µM (inactive) | > 65.5 µM (inactive) | 13.7 µM (inactive) | 32.6 µM (inactive) | 82.4 µM (inactive) | 54.8 µM (inactive) | > 100 µM (inactive) | 27.6 µM (inactive) | 53.5 µM (inactive) | 27 µM (inactive) | 8.97 µM (inactive) | > 100 µM (inactive) | 27.4 µM (inactive) | > 33.7 µM (inactive) | > 86.3 µM (inactive) | > 100 µM (inactive)
Cc1c(N)nc(C(CC(N)=O)NCC(N)C(N)=O)nc1C(=O)NC(C(=O)NC(C)C(O)C(C)C(=O)NC(C(=O)NCCc1nc(-c2nc(C(=O)NCCCNC(C)c3ccccc3)cs2)cs1)C(C)O)C(OC1OC(CO)C(O)C(O)C1OC1OC(CO)C(O)C(OC(N)=O)C1O)c1c[nH]cn1 (stereo not given) | 17.7 µM (inactive) | 2.07 µM (inactive) | 1.83 µM (inactive) | 0.0998 µM (active) | 0.184 µM (active) | 4.4 µM (inactive) | 5.26 µM (inactive) | 1.69 µM (inactive) | 5.96 µM (inactive) | 0.0208 µM (active) | 0.283 µM (active) | 40.5 µM (inactive) | 0.0258 µM (active) | 0.847 µM (active) | 8.05 µM (inactive) | 18.2 µM (inactive) | 31.5 µM (inactive) | 32.8 µM (inactive) | 9.51 µM (inactive) | 21.6 µM (inactive)
CC1(C)OCN(c2ccc(Cl)cc2)Cn2c1nc1ccccc12 | – | 70.5 µM (inactive) | 11.6 µM (inactive) | > 27.3 µM (inactive) | > 100 µM (inactive) | 58.9 µM (inactive) | > 100 µM (inactive) | 48.9 µM (inactive) | > 100 µM (inactive) | 31.8 µM (inactive) | 9.79 µM (inactive) | > 100 µM (inactive) | – | 6.44 µM (inactive) | > 51.9 µM (inactive) | > 100 µM (inactive) | > 19.9 µM (inactive) | 7.6 µM (inactive) | 2.44 µM (inactive) | 3.56 µM (inactive)
BrC(Br)([P+](c1ccccc1)(c1ccccc1)c1ccccc1)[P+](c1ccccc1)(c1ccccc1)c1ccccc1 | 12.2 µM (inactive) | 22.7 µM (inactive) | 7.91 µM (inactive) | 40.5 µM (inactive) | 20.3 µM (inactive) | – | – | 22.4 µM (inactive) | 21.6 µM (inactive) | 17.7 µM (inactive) | 23.6 µM (inactive) | 14.1 µM (inactive) | 7.98 µM (inactive) | 26.3 µM (inactive) | 11.9 µM (inactive) | – | 16.6 µM (inactive) | 15.9 µM (inactive) | 18.1 µM (inactive) | 17.4 µM (inactive)
O=C1C=CC(=O)c2c(O)ccc(O)c21 [NAPHTHAZALIN] | 0.377 µM (active) | 1.33 µM (inactive) | 0.15 µM (active) | 9.75 µM (inactive) | 9.25 µM (inactive) | 2.32 µM (inactive) | 2.07 µM (inactive) | 2.96 µM (inactive) | 6.95 µM (inactive) | 1.21 µM (inactive) | 2.11 µM (inactive) | 1.26 µM (inactive) | 1.27 µM (inactive) | 8.95 µM (inactive) | 2.09 µM (inactive) | 2.04 µM (inactive) | 1.34 µM (inactive) | 0.326 µM (active) | 7.96 µM (inactive) | 4.66 µM (inactive)
